Measured values reported in patent US20250154105A1, “POLYCYCLIC COMPOUND AND USE THEREOF” (TYK MEDICINES, INC., priority 2021, published 2025).

Experiments:
[1] = test system: human pleural mesothelioma cells NCI-H226; test: Cell anti-proliferation experiment (CCK8), NCI-H226; format: cell-based
Procedure, shortened: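 Viability was measured by CCK-8 (3 h, A450) after 3-day treatment with 0.15–333.33 nM compound in 0.1% DMSO medium. Curve-fitted IC50 was based on viability normalised to no-drug and cell-free controls.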

YAP-TEAD = YAP-TEAD inhibitor activity by Nano luciferase method (8xGTiiC-nLuc reporter in 293T cells); format: cell-based; details: Homo sapiens, HEK-293T, 48 hours incubation, read-out: Nano-luciferase detection (IC50)
Procedure, shortened: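 IC50 derived from nLuc reporter signal normalised to 0 nM wells, after 48 h, 37 °C compound exposure (1:3.16 series, highest 10,000 nM). Cells: 293T transfected with 8xGTiiC-nLuc/CMV-fLuc plasmid, plated at 2000 per well.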

Compound | IC50 [1] [nM] | IC50 (YAP-TEAD) [nM]
C[C@@H](NC(=O)c1ccc2c(c1)c1cscc1c(=O)n2-c1ccc(C(F)(F)F)cc1)c1cccc(N)n1 [Example T-397] | ≤ 1000 | ≤ 1000
C[C@H](NC(=O)c1cnc2c(c1)c1cscc1c(=O)n2-c1ccc(C(F)(F)F)nn1)c1ccccn1 [Example T-398] | 1000 to 5000 | 1000 to 5000
C[C@H](NC(=O)c1ccc2c(c1)c1ccccc1c(=O)n2-c1ccc(C(F)(F)F)cc1)c1cccc(N)n1 [Example T-399] | ≤ 1000 | ≤ 1000
C[C@H](NC(=O)c1cnc2c(c1)c1ccoc1c(=O)n2-c1ccc(C(F)(F)F)cc1)c1ccccn1 [Example T-400] | ≤ 1000 | ≤ 1000
Cc1cc2c(=O)n(-c3ccc(C(F)(F)F)cc3)c3ncc(C(=O)N[C@@H](C)c4ccccn4)cc3c2s1 [Example T-404] | ≤ 1000 | ≤ 1000
C[C@H](NC(=O)c1cnc2c(c1)c1cc(C#N)ccc1c(=O)n2-c1ccc(C(F)(F)F)cc1)c1ccccn1 [Example T-410] | ≤ 1000 | ≤ 1000
Cc1cc(=O)n(-c2ccc(C(F)(F)F)cc2)c2ccc(C(=O)N[C@@H](C)c3cccc(N)n3)cc12 [Example T-413] | ≤ 1000 | ≤ 1000
C=CC(=O)Nc1ccc2c(c1)c1nscc1c(=O)n2-c1ccc(C(F)(F)F)cc1 [Example T-418] | ≤ 1000 | ≤ 1000
CNS(=O)(=O)c1ccc2c(c1)cc(C)c(=O)n2-c1ccc(C(F)(F)F)cc1 [Example T-421] | ≤ 1000 | ≤ 1000
C=CC(=O)Nc1ccc2c(c1)c1c(c(=O)n2-c2ccc(C(F)(F)F)cc2)CCC1 [Example T-424] | ≤ 1000 | ≤ 1000
CNS(=O)(=O)c1ccc2c(c1)c1c(c(=O)n2-c2ccc(C(F)(F)F)cc2)CCC1 [Example T-427] | ≤ 1000 | ≤ 1000
C[C@H](NC(=O)c1ccc2c(c1)c1c(c(=O)n2-c2ccc(C(F)(F)F)cc2)CCCC1)c1cccc(N)n1 [Example T-428] | ≤ 1000 | ≤ 1000
C[C@H](NC(=O)c1ccc2c(c1)c1sccc1c(=O)n2-c1ccc(C(F)(F)F)cc1)c1cccc(N)n1 [Example T-429] | ≤ 1000 | ≤ 1000
CNc1cccc([C@H](C)NC(=O)c2ccc3c(ccc(=O)n3-c3ccc(C(F)(F)F)cc3)c2)n1 [Example T-430] | ≤ 1000 | ≤ 1000
CS(=O)(=O)Nc1ccc2c(c1)c1c(c(=O)n2-c2ccc(C(F)(F)F)cc2)CCC1 [Example T-432] | ≤ 1000 | ≤ 1000
C[C@H](NC(=O)c1ccc2c(c1)c1nscc1c(=O)n2-c1ccc(C(F)(F)F)cc1)c1cccc(N)n1 [Example T-435] | ≤ 1000 | ≤ 1000
C[C@H](NC(=O)c1cnc2c(c1)c1csnc1c(=O)n2-c1ccc(C(F)(F)F)cc1)c1ccccn1 [Example T-439] | ≤ 1000 | ≤ 1000
CC1CCc2c1c1cc(C(=O)N[C@@H](C)c3ccccn3)ccc1n(-c1ccc(C(F)(F)F)cc1)c2=O (stereo partly drawn) [Example T-445] | ≤ 1000 | ≤ 1000
Cc1cc2cc(C(=O)N[C@@H](C)c3ccccn3)cnc2n(-c2ccc(C(F)(F)F)cc2)c1=O [Example T-460] | ≤ 1000 | ≤ 1000

The remaining lines, values ahead:

IC50 [1] [nM] | IC50 (YAP-TEAD) [nM] | Compound
≤ 1000 | ≤ 1000 | CCn1cc2c(=O)n(-c3ccc(C(F)(F)F)cc3)c3ncc(C(=O)N[C@@H](C)c4ccccn4)cc3c2n1 [Example T-401]
≤ 1000 | ≤ 1000 | C[C@H](NC(=O)c1ccc2c(n1)c1ccccc1c(=O)n2-c1ccc(C(F)(F)F)cc1)c1ccccn1 [Example T-403]
≤ 1000 | ≤ 1000 | C[C@H](NC(=O)c1cnc2c(c1)c1sc(Cl)c(Br)c1c(=O)n2-c1ccc(C(F)(F)F)cc1)c1ccccn1 [Example T-405]
≤ 1000 | ≤ 1000 | C[C@H](NC(=O)c1cnc2c(c1)c1cnccc1c(=O)n2-c1ccc(C(F)(F)F)cc1)c1ccccn1 [Example T-406]
≤ 1000 | ≤ 1000 | C[C@H](NC(=O)c1cnc2c(c1)c1cc(F)ccc1c(=O)n2-c1ccc(C(F)(F)F)cc1)c1ccccn1 [Example T-407]
≤ 1000 | ≤ 1000 | Cc1ccc2c(=O)n(-c3ccc(C(F)(F)F)cc3)c3ncc(C(=O)N[C@@H](C)c4ccccn4)cc3c2c1 [Example T-408]
≤ 1000 | ≤ 1000 | C[C@H](NC(=O)c1cnc2c(c1)c1nscc1c(=O)n2-c1ccc(C(F)(F)F)cc1)c1cccc(N)n1 [Example T-409]
1000 to 5000 | ≤ 1000 | C[C@H](NC(=O)c1ccc2c(c1)c1c(cnn1CC(F)(F)F)c(=O)n2-c1ccc(C(F)(F)F)cc1)c1ccccn1 [Example T-411]
≤ 1000 | ≤ 1000 | C=CC(=O)Nc1ccc2c(c1)cc(C)c(=O)n2-c1ccc(C(F)(F)F)cc1 [Example T-412]
≤ 1000 | ≤ 1000 | Cc1cc2cc(C(=O)N[C@@H](C)c3cccc(N)n3)ccc2n(-c2ccc(C(F)(F)F)cc2)c1=O [Example T-414]
≤ 1000 | ≤ 1000 | Cc1cc2cc(C(=O)N[C@@H](C)c3ccccn3)ccc2n(-c2ccc(C(F)(F)F)cc2)c1=O [Example T-415]
≤ 1000 | ≤ 1000 | C[C@H](NC(=O)c1ccc2c(c1)cc(C(F)F)c(=O)n2-c1ccc(C(F)(F)F)cc1)c1cccc(N)n1 [Example T-417]
≤ 1000 | ≤ 1000 | C[C@H](NC(=O)c1ccc2c(c1)c1ncccc1c(=O)n2-c1ccc(C(F)(F)F)cc1)c1cccc(N)n1 [Example T-419]
≤ 1000 | ≤ 1000 | C[C@H](NC(=O)c1ccc2c(ccc(=O)n2-c2ccc(C(F)(F)F)cc2)c1)c1cccc(N)n1 [Example T-423]
≤ 1000 | ≤ 1000 | C[C@H](NC(=O)c1ccc2c(c1)c1c(c(=O)n2-c2ccc(C(F)(F)F)cc2)CCC1)c1cccc(N)n1 [Example T-425]
≤ 1000 | ≤ 1000 | COC[C@H](C)NC(=O)c1ccc2c(c1)C1=C(CCC1)CN2c1ccc(C(F)(F)F)cc1 [Example T-426]
≤ 1000 | ≤ 1000 | Cc1c(C)c2cc(C(=O)N[C@@H](C)c3cccc(N)n3)ccc2n(-c2ccc(C(F)(F)F)cc2)c1=O [Example T-431]
≤ 1000 | ≤ 1000 | C[C@H](NC(=O)c1ccc2c(c1)c1cnccc1c(=O)n2-c1ccc(C(F)(F)F)cc1)c1cccc(N)n1 [Example T-434]
≤ 1000 | ≤ 1000 | Cc1c(C)c2cc(C(=O)N[C@@H](C)c3ccccn3)ccc2n(-c2ccc(C(F)(F)F)cc2)c1=O [Example T-436]
≤ 1000 | ≤ 1000 | C[C@H](NC(=O)c1cnc2c(c1)c1ccccc1c(=O)n2-c1ccc(C(F)(F)F)cc1)c1cccc(N)n1 [Example T-437]
≤ 1000 | ≤ 1000 | C[C@@H]1CCc2c1c(=O)n(-c1ccc(C(F)(F)F)cc1)c1ccc(C(=O)N[C@@H](C)c3ccccn3)cc21 [Example T-446]
1000 to 5000 | 1000 to 5000 | COC[C@@H](C)NC(=O)c1ccc2c(c1)c1cnccc1c(=O)n2-c1ccc(C(F)(F)F)cc1 [Example T-448]
≤ 1000 | ≤ 1000 | C[C@H](NC(=O)c1cnc2c(c1)c1cscc1c(=O)n2-c1ccc(C(F)(F)F)cc1)c1cccc(N)n1 [Example T-454]
≤ 1000 | ≤ 1000 | C[C@H](NC(=O)c1cnc2c(ccc(=O)n2-c2ccc(C(F)(F)F)cc2)c1)c1cccc(N)n1 [Example T-455]
≤ 1000 | ≤ 1000 | C[C@H](NC(=O)c1cnc2c(ccc(=O)n2-c2ccc(C(F)(F)F)cc2)c1)c1ccccn1 [Example T-456]
≤ 1000 | ≤ 1000 | Cc1cc(=O)n(-c2ccc(C(F)(F)F)cc2)c2ncc(C(=O)N[C@@H](C)c3cccc(N)n3)cc12 [Example T-457]
≤ 1000 | ≤ 1000 | Cc1cc(=O)n(-c2ccc(C(F)(F)F)cc2)c2ncc(C(=O)N[C@@H](C)c3ccccn3)cc12 [Example T-458]
≤ 1000 | ≤ 1000 | Cc1cc(=O)n(-c2ccc(C(F)(F)F)cc2)c2ncc(C(=O)N[C@@H](C)c3ccccc3)cc12 [Example T-459]
≤ 1000 | ≤ 1000 | Cc1cc2cc(C(=O)N[C@@H](C)c3ccccc3)cnc2n(-c2ccc(C(F)(F)F)cc2)c1=O [Example T-462]
